Assay results: ChEMBL document CHEMBL3739268, “Structure activity relationships of 4-hydroxy-2-pyridones: A novel class of antituberculosis agents” (Eur J Med Chem, 2015)
Converted amounts (≈) assume the structure as drawn.

Test system: Mycobacterium tuberculosis
Experiment: Antituberculosis activity against multi-drug resistant Mycobacterium tuberculosis
Format: functional

| Structure (SMILES) | MIC |
| --- | --- |
| CC(C)Cc1cc(O)c(-c2ccccc2)c(=O)[nH]1 | 2.5 µM (≈ 0.608 µg/mL) |
| CC1(C)CCC(Cc2cc(O)c(-c3ccccc3)c(=O)[nH]2)CC1 | 0.04 µM (≈ 0.0125 µg/mL) |
